Among the data in patent publication US20260015350A1, “AZAQUINAZOLINE PAN-KRAS INHIBITORS” (Mirati Therapeutics, Inc., priority 2022, published 2026) are IC50 values, retold here.

The target of one assay is T1, KRas^G12D (Homo sapiens, UniProt P01116, G12D).
T1 construct: Biotinylated KRas (corresponding to amino acids 1-169, produced at Accelegan Inc.); biotin (biotinylated); purchased Accelegan Inc
Description: KRas binding assay (TR-FRET tracer displacement), KRas G12D. For orientation: Time-resolved FRET reads energy transfer from a long-lived donor to a nearby acceptor.

The next assay concerns the target T2, KRas^G12R (Homo sapiens, UniProt P01116, G12R).
T2 construct: Biotinylated KRas (corresponding to amino acids 1-169, produced at Accelegan Inc.); biotin (biotinylated); purchased Accelegan Inc
Description: KRas binding assay (TR-FRET tracer displacement), KRas G12R.

The target of the next assay is T3, KRas^G12V (Homo sapiens, UniProt P01116, G12V).
T3 construct: Biotinylated KRas (corresponding to amino acids 1-169, produced at Accelegan Inc.); biotin (biotinylated); purchased Accelegan Inc
T3 sequence (P01116 1-169 isoform P01116-2 G12V): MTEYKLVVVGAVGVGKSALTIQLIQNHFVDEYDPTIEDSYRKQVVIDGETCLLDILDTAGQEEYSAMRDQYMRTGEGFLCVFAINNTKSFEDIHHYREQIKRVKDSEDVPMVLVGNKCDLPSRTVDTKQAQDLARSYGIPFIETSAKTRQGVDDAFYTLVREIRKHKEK
In words: KRas binding assay (TR-FRET tracer displacement), KRas G12V.

Assay [1] relates to KRas-mediated phosphorylation of ERK in AsPC-1 cells. In words: Inhibition of KRas-mediated phosphorylation of ERK (Cisbio HTRF pERK), AsPC-1 cells. Format: cell-based. As to conditions: Homo sapiens, ASPC1, AsPC-1 cells; HTRF pERK. In short, it runs like this: (§1)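 Compound treatment lasts 3 hrs on 6,000 seeded cells, testing 10 doses from a 10 uM top concentration in 3-fold decrements at 0.8% final DMSO. Trametinib at 0.2 uM defines the Min signal. Detection is HTRF on cold-lysed cell extracts.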

Assay [2] concerns KRas-mediated phosphorylation of ERK in H727 cells. Description: Inhibition of KRas-mediated phosphorylation of ERK (Cisbio HTRF pERK), H727 cells. Format: cell-based. The note with it: Homo sapiens, NCI-H727, H727 cells; HTRF pERK. In short, it runs like this: as §1

T2 sequence (P01116 1-169 isoform P01116-2 G12R): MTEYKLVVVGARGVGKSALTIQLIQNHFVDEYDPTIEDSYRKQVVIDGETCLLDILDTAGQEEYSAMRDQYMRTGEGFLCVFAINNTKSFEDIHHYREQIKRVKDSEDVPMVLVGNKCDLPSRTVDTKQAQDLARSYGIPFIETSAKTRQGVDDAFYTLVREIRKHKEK
T1 sequence (P01116 1-169 isoform P01116-2 G12D): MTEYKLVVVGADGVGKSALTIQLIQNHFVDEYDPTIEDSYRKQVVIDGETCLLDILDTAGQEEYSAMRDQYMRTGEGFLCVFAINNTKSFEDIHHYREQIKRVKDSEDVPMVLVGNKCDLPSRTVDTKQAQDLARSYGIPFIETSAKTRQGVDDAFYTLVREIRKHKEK

The IC50 is the concentration at which inhibition is half-maximal. Take `CCc1c(F)ccc2cc(O)cc(-c3ncc4c(NCc5cc(C(=O)N(C)C)nn5C5CS(=O)(=O)C5)nc(OC[C@@]56CCCN5C[C@H](F)C6)nc4c3F)c12` [Example 691, 1-(1,1-dioxidothietan-3-yl)-5-(((7-(8-ethyl-7-fluoro-3-hydroxynaphthalen-1-yl)-8-fluoro-2-(((2R,7aS)-2-fluorohexahydro-1H-pyrrolizin-7a-yl)methoxy)pyrido[4,3-d]pyrimidin-4-yl)amino)methyl)-N,N-dimethyl-1H-pyrazole-3-carboxamide]: the IC50 on KRas^G12D is 5 nM; at KRas^G12R, 6 nM; at KRas^G12V, 2 nM; in assay [1], greater than 10000 nM; in assay [2] it was greater than 10000 nM.

`CCc1c(F)ccc2cc(O)cc(-c3ncc4c(NCc5cn(C(=O)N(C)C)nc5NC(=O)C5CC(O)C5)nc(OC[C@@]56CCCN5C[C@H](F)C6)nc4c3F)c12` (stereo partly drawn) [Example 693, 4-(((7-(8-ethyl-7-fluoro-3-hydroxynaphthalen-1-yl)-8-fluoro-2-(((2R,7aS)-2-fluorohexahydro-1H-pyrrolizin-7a-yl)methoxy)pyrido[4,3-d]pyrimidin-4-yl)amino)methyl)-3-(3-hydroxycyclobutanecarboxamido)-N,N-dimethyl-1H-pyrazole-1-carboxamide]: the IC50 on KRas^G12D is 509 nM; at KRas^G12R, 38 nM; at KRas^G12V it was 25 nM; in assay [1], greater than 10000 nM; in assay [2], greater than 10000 nM.

As for `CCc1c(F)ccc2cc(O)cc(-c3ncc4c(N5CC6C(=O)NC(=O)C6C5)nc(OC[C@]56CCCN5[C@H](COC(=O)N(C)C)CC6)nc4c3F)c12` (stereo partly drawn) [Example 708, ((3S,7aR)-7a-(((4-(4,6-dioxohexahydropyrrolo[3,4-c]pyrrol-2(1H)-yl)-7-(8-ethyl-7-fluoro-3-hydroxynaphthalen-1-yl)-8-fluoropyrido[4,3-d]pyrimidin-2-yl)oxy)methyl)hexahydro-1H-pyrrolizin-3-yl)methyl dimethylcarbamate], the IC50 at KRas^G12D was 19900 nM; on KRas^G12R it was 39800 nM; on KRas^G12V it was 42900 nM; in assay [1], greater than 10000 nM; in assay [2] it was greater than 10000 nM.

`CN(C)C(=O)n1cc(CNc2nc(OC[C@@]34CCCN3C[C@H](F)C4)nc3c(F)c(-c4cc(O)cc5ccc(F)c(Cl)c45)ncc23)c(NC(=O)[C@H]2C[C@H](O)C2)n1` [Example 775, 4-(((7-(8-chloro-7-fluoro-3-hydroxynaphthalen-1-yl)-8-fluoro-2-(((2R,7aS)-2-fluorohexahydro-1H-pyrrolizin-7a-yl)methoxy)pyrido[4,3-d]pyrimidin-4-yl)amino)methyl)-3-((1r,3S)-3-hydroxycyclobutanecarboxamido)-N,N-dimethyl-1H-pyrazole-1-carboxamide]: the IC50 on KRas^G12D is 23 nM; on KRas^G12R, 3 nM; at KRas^G12V, 4 nM; in assay [1], greater than 10000 nM; in assay [2] it was greater than 10000 nM.

In the case of `CCc1c(F)ccc2cc(O)cc(-c3ncc4c(N5CCC[C@@](C)(O)C5)nc(OCC5(CN(C)C)CC5CO)nc4c3F)c12` (stereo partly drawn) [Example 813, (3R)-1-(2-((1-((dimethylamino)methyl)-2-(hydroxymethyl)cyclopropyl)methoxy)-7-(8-ethyl-7-fluoro-3-hydroxynaphthalen-1-yl)-8-fluoropyrido[4,3-d]pyrimidin-4-yl)-3-methylpiperidin-3-ol], the concentration for half-maximal inhibition (IC50) was less than 2 nM on KRas^G12D; 4 nM at KRas^G12R; less than 2 nM at KRas^G12V; 1080 nM in assay [1]; 2550 nM in assay [2].

As to `O=C1NS(=O)(=O)NC12CCCN(c1nc(OC[C@@]34CCCN3C[C@H](F)C4)nc3c(F)c(-c4cc(O)cc5ccc(F)c(Cl)c45)ncc13)C2` (stereo partly drawn) [Example 816, 7-(7-(8-chloro-7-fluoro-3-hydroxynaphthalen-1-yl)-8-fluoro-2-(((2R,7aS)-2-fluorotetrahydro-1H-pyrrolizin-7a(5H)-yl)methoxy)pyrido[4,3-d]pyrimidin-4-yl)-2-thia-1,3,7-triazaspiro[4.5]decan-4-one 2,2-dioxide], the IC50 was 8 nM at KRas^G12D; 3 nM on KRas^G12R; 3 nM at KRas^G12V; greater than 10000 nM in assay [1]; greater than 10000 nM in assay [2].

As for `CCc1c(F)ccc2cc(O)cc(-c3ncc4c(N5CCC[C@@](C)(O)C5)nc(OCC56CC5CCCN(C)C6)nc4c3F)c12` (stereo partly drawn) [Example 828, (3R)-1-(7-(8-ethyl-7-fluoro-3-hydroxynaphthalen-1-yl)-8-fluoro-2-((3-methyl-3-azabicyclo[5.1.0]octan-1-yl)methoxy)pyrido[4,3-d]pyrimidin-4-yl)-3-methylpiperidin-3-ol], the IC50 at KRas^G12D was 11400 nM; on KRas^G12R it was 21400 nM; on KRas^G12V, 12700 nM; in assay [1] it was greater than 10000 nM; in assay [2] it was greater than 10000 nM.

For `CCc1c(F)ccc2cc(O)cc(-c3ncc4c(N5CCC(Cc6cncn6C)C5)nc(OC[C@@]56CCCN5C[C@H](F)C6)nc4c3F)c12` (stereo partly drawn) [Example 829, 5-ethyl-6-fluoro-4-(8-fluoro-2-(((2R,7aS)-2-fluorotetrahydro-1H-pyrrolizin-7a(5H)-yl)methoxy)-4-(3-((1-methyl-1H-imidazol-5-yl)methyl)pyrrolidin-1-yl)pyrido[4,3-d]pyrimidin-7-yl)naphthalen-2-ol], the half-maximal inhibitory concentration (IC50) at KRas^G12D is 939 nM; on KRas^G12R, 460 nM; on KRas^G12V, 195 nM; in assay [1], greater than 10000 nM; in assay [2] it was greater than 10000 nM.

With `CCc1c(F)ccc2cc(O)cc(-c3ncc4c(N5CCCCCC(P(C)(C)=O)C5)nc(OC[C@@]56CCCN5C[C@H](F)C6)nc4c3F)c12` (stereo partly drawn) [Example 864, (1-(7-(8-ethyl-7-fluoro-3-hydroxynaphthalen-1-yl)-8-fluoro-2-(((2R,7aS)-2-fluorotetrahydro-1H-pyrrolizin-7a(5H)-yl)methoxy)pyrido[4,3-d]pyrimidin-4-yl)azocan-3-yl)dimethylphosphine oxide], the concentration for half-maximal inhibition (IC50) was 2130 nM on KRas^G12D; 1790 nM at KRas^G12R; 946 nM at KRas^G12V; greater than 10000 nM in assay [1]; greater than 10000 nM in assay [2].

In the case of `CCc1c(F)ccc2cc(O)cc(-c3ncc4c(N5CCn6ncc(C#N)c6C5)nc(OC[C@@]56CCCN5C[C@H](F)C6)nc4c3F)c12` [Example 865, 5-(7-(8-ethyl-7-fluoro-3-hydroxynaphthalen-1-yl)-8-fluoro-2-(((2R,7aS)-2-fluorotetrahydro-1H-pyrrolizin-7a(5H)-yl)methoxy)pyrido[4,3-d]pyrimidin-4-yl)-4,5,6,7-tetrahydropyrazolo[1,5-a]pyrazine-3-carbonitrile], the IC50 on KRas^G12D was 809 nM; at KRas^G12R, 282 nM; at KRas^G12V it was 310 nM; in assay [1] it was 7700 nM; in assay [2], greater than 10000 nM.

As to `CCc1c(F)ccc2cc(O)cc(-c3ncc4c(N5Cc6c(C(=O)N(C)C)nn(C)c6C5)nc(OC[C@@]56CCCN5C[C@H](F)C6)nc4c3F)c12` [Example 867, 5-(7-(8-ethyl-7-fluoro-3-hydroxynaphthalen-1-yl)-8-fluoro-2-(((2R,7aS)-2-fluorotetrahydro-1H-pyrrolizin-7a(5H)-yl)methoxy)pyrido[4,3-d]pyrimidin-4-yl)-N,N, 1-trimethyl-1,4,5,6-tetrahydropyrrolo[3,4-c]pyrazole-3-carboxamide], the IC50 on KRas^G12D was 527 nM; at KRas^G12R it was 253 nM; at KRas^G12V it was 97 nM; in assay [1] it was greater than 10000 nM; in assay [2] it was 3410 nM.

For `CCc1c(F)ccc2cc3[nH]ncc3c(-c3ncc4c(N5CCC[C@]6(C5)NC(=O)NC6=O)nc(OCC56CCCN5CCC6)nc4c3F)c12` [Example 884, (5R)-7-(7-(5-ethyl-6-fluoro-1H-benzo[f]indazol-4-yl)-8-fluoro-2-((tetrahydro-1H-pyrrolizin-7a(5H)-yl)methoxy)pyrido[4,3-d]pyrimidin-4-yl)-1,3,7-triazaspiro[4.5]decane-2,4-dione], the half-inhibitory concentration (IC50) is less than 2 nM on KRas^G12D; less than 2 nM at KRas^G12R; less than 2 nM at KRas^G12V; 3180 nM in assay [1]; 2810 nM in assay [2].

Regarding `CCc1c(F)ccc2cc(O)cc(-c3ncc4c(N5CC(C)(O)C6CC5C6)nc(OC[C@@]56CCCN5C[C@H](F)C6)nc4c3F)c12` (stereo partly drawn) [Example 893, 2-(7-(8-ethyl-7-fluoro-3-hydroxynaphthalen-1-yl)-8-fluoro-2-(((2R,7aS)-2-fluorotetrahydro-1H-pyrrolizin-7a(5H)-yl)methoxy)pyrido[4,3-d]pyrimidin-4-yl)-4-methyl-2-azabicyclo[3.1.1]heptan-4-ol], the IC50 stood at 92 nM at KRas^G12D; 40 nM at KRas^G12R; 43 nM on KRas^G12V; 2100 nM in assay [1]; 3020 nM in assay [2].

Consider `CCc1c(F)ccc2cc(O)cc(-c3ncc4c(N5CC6CCC(CCC(=O)NC)(C6)C5)nc(OC[C@@]56CCCN5C[C@H](F)C6)nc4c3F)c12` (stereo partly drawn) [Example 909, 3-(3-(7-(8-ethyl-7-fluoro-3-hydroxynaphthalen-1-yl)-8-fluoro-2-(((2R,7aS)-2-fluorotetrahydro-1H-pyrrolizin-7a(5H)-yl)methoxy)pyrido[4,3-d]pyrimidin-4-yl)-3-azabicyclo[3.2.1]octan-1-yl)-N-methylpropanamide], for which the IC50 stood at 24 nM at KRas^G12D; 7 nM at KRas^G12R; 7 nM at KRas^G12V; 5160 nM in assay [1]; 1310 nM in assay [2].
